Like-named read-outs stand apart in the source and are kept apart here.
How the values were obtained:
Assay in all cases: KINOMEscan in vitro binding to 468 labeled protein kinases
protein kinases [1] = biological target: T1, protein kinases (Homo sapiens, UniProt P00519, F317L); conditions: read-out: Test compound/solvent control (%); for remaining binding at 0.001 µM: 1 nM; for remaining binding at 0.01 µM: 10 nM; for remaining binding at 1 µM: 1000 nM
T1 construct: purchased Discovery X company (USA), KINOMEscan screening platform
Summary of the method: (§1)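 Duplicate in vitro binding reactions at 1 nM, 10 nM and 1000 nM compound against a panel of 468 labelled protein kinases (KINOMEscan). Binding expressed relative to solvent control as a percentage, stronger affinity giving a lower value.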

protein kinases [2] = biological target: T2, protein kinases (Homo sapiens, UniProt P00519, T315I); conditions: read-out: Test compound/solvent control (%); for remaining binding at 0.001 µM: 1 nM; for remaining binding at 0.01 µM: 10 nM; for remaining binding at 1 µM: 1000 nM
T2 construct: purchased Discovery X company (USA), KINOMEscan screening platform
Summary of the method: as §1

protein kinases [3] = biological target: T3, protein kinases (Homo sapiens, UniProt P00533, G719C); conditions: EGFR(G719C)
T3 construct: purchased Discovery X company (USA), KINOMEscan screening platform
T3 sequence (P00533 25-1210 G719C): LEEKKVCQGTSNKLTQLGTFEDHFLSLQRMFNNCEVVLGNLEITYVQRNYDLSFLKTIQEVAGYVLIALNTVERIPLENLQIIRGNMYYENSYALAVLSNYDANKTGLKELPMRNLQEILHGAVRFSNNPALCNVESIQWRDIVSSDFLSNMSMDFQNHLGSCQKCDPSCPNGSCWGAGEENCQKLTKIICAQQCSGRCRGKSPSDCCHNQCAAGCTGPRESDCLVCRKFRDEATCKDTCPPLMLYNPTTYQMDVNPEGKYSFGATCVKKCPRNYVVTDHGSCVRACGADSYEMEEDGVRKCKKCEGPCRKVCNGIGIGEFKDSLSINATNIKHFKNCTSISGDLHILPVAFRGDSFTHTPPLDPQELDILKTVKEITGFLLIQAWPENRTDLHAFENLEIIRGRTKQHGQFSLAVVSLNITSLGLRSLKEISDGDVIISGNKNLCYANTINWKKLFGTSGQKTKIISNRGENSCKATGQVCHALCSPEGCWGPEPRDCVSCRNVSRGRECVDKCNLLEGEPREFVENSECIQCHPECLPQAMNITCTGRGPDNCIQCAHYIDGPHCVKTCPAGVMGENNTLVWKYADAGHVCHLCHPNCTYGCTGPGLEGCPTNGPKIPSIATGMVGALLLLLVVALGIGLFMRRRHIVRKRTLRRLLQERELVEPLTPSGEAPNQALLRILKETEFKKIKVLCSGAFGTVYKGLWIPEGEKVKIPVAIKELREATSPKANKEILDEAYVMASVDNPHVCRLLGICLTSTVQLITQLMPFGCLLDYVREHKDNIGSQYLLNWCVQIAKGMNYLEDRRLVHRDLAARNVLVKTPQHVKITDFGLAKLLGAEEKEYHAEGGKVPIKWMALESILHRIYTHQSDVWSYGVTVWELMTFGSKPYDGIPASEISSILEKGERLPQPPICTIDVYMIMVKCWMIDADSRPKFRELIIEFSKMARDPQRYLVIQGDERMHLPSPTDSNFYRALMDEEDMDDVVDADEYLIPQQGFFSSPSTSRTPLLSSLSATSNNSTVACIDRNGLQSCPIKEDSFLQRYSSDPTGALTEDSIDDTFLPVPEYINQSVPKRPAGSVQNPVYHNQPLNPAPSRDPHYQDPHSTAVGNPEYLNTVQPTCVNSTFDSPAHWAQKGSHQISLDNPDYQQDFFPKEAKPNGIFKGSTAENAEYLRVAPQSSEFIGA
Summary of the method: as §1

protein kinases [4] = biological target: T4, protein kinases (Homo sapiens, UniProt P00533, L858R); conditions: EGFR(L858R)
T4 construct: purchased Discovery X company (USA), KINOMEscan screening platform
Summary of the method: as §1

protein kinases [5] = biological target: T5, protein kinases (Homo sapiens, UniProt P00533, L858R/T790M); conditions: EGFR(L858R,T790M)
T5 construct: purchased Discovery X company (USA), KINOMEscan screening platform
T5 sequence (P00533 25-1210 T790M/L858R): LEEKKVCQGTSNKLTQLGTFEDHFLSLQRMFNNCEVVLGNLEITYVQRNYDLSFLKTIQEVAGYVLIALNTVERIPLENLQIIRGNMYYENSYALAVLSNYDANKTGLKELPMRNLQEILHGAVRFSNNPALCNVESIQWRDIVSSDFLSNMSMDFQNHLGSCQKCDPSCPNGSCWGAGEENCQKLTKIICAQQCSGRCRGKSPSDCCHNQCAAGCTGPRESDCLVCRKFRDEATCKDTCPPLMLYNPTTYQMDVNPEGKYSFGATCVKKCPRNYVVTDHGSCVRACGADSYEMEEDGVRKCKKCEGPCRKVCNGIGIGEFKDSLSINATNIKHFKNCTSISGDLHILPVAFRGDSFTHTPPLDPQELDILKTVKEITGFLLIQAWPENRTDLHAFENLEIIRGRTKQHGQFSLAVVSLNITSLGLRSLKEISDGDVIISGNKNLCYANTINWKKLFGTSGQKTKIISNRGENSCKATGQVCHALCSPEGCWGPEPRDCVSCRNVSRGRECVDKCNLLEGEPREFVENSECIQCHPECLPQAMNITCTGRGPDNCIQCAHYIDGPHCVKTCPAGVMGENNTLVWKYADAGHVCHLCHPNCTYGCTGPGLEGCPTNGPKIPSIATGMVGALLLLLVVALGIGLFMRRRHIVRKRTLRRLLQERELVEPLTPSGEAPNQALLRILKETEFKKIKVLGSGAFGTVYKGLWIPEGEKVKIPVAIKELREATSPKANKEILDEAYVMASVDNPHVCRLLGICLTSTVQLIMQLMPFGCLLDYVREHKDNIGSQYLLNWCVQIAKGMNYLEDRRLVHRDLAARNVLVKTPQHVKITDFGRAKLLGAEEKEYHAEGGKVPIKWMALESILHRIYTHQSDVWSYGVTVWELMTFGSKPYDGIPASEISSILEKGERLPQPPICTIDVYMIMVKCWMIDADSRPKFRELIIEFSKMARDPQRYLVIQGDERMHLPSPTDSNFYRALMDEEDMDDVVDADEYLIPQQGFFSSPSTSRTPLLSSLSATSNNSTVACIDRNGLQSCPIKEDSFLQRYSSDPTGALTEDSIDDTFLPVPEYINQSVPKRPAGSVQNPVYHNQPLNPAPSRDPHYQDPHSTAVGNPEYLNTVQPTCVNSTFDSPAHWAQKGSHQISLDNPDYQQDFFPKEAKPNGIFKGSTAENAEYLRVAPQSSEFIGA
Summary of the method: as §1

protein kinases [6] = biological target: T6, protein kinases (Homo sapiens, UniProt P07949, M918T); conditions: RET(M918T), read-out: Test compound/solvent control (%)
T6 construct: purchased Discovery X company (USA), KINOMEscan screening platform
T6 sequence (P07949 29-1114 M918T): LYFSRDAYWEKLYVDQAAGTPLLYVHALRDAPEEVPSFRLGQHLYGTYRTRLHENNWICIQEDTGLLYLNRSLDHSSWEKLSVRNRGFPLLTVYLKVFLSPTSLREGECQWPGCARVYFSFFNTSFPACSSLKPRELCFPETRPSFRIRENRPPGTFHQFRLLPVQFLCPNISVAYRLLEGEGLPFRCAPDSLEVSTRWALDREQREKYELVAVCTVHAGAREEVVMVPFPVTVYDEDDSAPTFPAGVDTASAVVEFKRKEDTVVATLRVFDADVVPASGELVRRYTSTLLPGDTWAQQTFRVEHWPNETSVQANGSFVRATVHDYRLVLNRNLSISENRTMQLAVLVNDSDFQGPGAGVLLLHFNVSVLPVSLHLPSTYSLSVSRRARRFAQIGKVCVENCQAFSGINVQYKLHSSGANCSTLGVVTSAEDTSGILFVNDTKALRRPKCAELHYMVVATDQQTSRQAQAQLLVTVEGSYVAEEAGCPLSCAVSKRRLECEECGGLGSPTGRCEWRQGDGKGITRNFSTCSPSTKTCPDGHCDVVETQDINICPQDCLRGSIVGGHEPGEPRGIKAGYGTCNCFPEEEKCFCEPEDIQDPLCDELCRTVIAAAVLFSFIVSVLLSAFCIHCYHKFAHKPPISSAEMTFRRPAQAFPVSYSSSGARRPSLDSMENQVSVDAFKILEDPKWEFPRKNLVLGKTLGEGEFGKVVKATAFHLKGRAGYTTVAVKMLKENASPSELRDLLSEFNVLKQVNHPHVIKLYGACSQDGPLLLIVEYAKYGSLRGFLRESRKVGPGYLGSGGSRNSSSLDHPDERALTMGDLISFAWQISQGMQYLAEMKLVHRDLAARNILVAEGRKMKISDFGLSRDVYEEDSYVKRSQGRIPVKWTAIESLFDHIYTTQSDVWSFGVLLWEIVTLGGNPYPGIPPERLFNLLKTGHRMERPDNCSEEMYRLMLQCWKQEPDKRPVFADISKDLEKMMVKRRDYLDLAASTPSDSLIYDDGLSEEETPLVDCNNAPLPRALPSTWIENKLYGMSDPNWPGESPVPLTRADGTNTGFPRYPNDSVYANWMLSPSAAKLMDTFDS
Summary of the method: as §1

protein kinases [7] = biological target: T7, protein kinases (Homo sapiens, UniProt P07949, V804L); conditions: RET(V804L), read-out: Test compound/solvent control (%)
T7 construct: purchased Discovery X company (USA), KINOMEscan screening platform
T7 sequence (P07949 29-1114 V804L): as the sequence (P07949 29-1114 M918T) above, with V776L, T890M counted along it
Summary of the method: as §1

protein kinases [8] = biological target: T8, protein kinases (Homo sapiens, UniProt P08631); conditions: HCK, read-out: Test compound/solvent control (%)
T8 construct: purchased Discovery X company (USA), KINOMEscan screening platform
T8 sequence (P08631 whole entry): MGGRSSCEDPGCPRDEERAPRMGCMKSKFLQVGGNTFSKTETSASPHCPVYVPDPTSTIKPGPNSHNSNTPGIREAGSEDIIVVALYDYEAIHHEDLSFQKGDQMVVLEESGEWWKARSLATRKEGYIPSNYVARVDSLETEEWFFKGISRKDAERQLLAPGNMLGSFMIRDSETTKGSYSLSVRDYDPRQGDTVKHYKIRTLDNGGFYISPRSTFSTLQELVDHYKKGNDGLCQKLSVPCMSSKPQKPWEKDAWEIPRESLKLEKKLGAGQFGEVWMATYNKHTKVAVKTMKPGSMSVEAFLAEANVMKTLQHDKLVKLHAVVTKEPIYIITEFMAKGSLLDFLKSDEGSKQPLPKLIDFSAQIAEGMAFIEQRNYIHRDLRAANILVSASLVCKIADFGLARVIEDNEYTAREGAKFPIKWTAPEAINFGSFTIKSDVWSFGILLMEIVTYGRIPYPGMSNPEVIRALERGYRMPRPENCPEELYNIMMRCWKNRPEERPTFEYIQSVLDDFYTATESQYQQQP
Summary of the method: as §1

protein kinases [9] = biological target: T9, protein kinases (Homo sapiens, UniProt P10721); conditions: KIT, read-out: Test compound/solvent control (%)
T9 construct: purchased Discovery X company (USA), KINOMEscan screening platform
T9 sequence (P10721 26-976): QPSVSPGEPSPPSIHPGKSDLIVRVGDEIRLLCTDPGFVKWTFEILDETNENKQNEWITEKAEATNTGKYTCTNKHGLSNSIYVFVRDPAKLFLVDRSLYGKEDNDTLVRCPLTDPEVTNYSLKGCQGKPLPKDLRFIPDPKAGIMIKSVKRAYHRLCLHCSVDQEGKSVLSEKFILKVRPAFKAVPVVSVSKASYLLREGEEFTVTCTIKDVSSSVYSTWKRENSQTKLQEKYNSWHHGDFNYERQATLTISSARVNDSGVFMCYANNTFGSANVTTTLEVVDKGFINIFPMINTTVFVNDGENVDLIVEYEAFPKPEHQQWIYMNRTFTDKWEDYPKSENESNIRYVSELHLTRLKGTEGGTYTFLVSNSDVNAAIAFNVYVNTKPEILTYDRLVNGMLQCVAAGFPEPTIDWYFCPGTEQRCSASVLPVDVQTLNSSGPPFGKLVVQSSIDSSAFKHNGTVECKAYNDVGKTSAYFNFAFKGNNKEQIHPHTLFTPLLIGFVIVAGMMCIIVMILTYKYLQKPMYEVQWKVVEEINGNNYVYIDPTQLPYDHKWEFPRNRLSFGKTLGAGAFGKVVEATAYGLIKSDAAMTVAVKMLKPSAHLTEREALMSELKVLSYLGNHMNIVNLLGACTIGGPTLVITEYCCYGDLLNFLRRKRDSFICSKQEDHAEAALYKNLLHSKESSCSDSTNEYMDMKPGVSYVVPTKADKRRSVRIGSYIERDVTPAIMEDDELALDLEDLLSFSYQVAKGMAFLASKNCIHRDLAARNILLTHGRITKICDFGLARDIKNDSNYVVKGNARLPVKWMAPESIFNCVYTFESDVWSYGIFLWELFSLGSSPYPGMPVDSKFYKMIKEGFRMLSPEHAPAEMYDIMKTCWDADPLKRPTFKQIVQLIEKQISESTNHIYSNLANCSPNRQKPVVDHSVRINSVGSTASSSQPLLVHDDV
Summary of the method: as §1

protein kinases [10] = biological target: T10, protein kinases (Homo sapiens, UniProt P36888); conditions: FLT3, read-out: Test compound/solvent control (%)
T10 construct: purchased Discovery X company (USA), KINOMEscan screening platform
T10 sequence (P36888 27-993): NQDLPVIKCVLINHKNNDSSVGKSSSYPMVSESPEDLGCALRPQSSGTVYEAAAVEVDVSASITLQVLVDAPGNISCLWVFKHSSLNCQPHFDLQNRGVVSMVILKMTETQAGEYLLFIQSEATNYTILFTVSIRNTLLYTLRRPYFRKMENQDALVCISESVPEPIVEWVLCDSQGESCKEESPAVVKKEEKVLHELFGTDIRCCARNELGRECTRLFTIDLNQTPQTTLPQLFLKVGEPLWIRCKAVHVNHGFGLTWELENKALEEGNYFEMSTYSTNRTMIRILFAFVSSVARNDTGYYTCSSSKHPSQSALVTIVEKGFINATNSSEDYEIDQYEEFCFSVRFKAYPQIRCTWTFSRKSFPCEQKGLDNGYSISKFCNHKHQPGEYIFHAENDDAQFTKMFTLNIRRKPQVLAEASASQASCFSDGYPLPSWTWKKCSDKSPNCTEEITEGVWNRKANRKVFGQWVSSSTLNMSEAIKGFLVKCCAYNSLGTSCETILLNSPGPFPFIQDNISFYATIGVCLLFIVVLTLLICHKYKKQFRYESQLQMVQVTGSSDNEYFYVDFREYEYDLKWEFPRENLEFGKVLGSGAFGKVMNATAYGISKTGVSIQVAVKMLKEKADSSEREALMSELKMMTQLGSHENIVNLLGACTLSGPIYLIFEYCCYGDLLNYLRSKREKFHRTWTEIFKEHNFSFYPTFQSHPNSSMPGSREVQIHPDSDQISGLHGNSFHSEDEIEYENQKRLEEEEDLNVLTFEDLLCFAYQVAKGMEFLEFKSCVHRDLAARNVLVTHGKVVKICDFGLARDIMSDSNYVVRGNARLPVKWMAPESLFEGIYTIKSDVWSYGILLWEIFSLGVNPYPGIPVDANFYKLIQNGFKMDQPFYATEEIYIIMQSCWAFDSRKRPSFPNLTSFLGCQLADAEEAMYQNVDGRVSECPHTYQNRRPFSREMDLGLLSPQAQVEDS
Summary of the method: as §1

protein kinases [11] = biological target: T11, protein kinases (Homo sapiens, UniProt Q02763); conditions: TIE2, read-out: Test compound/solvent control (%)
T11 construct: purchased Discovery X company (USA), KINOMEscan screening platform
Summary of the method: as §1

protein kinases [12] = biological target: T12, protein kinases (Homo sapiens, UniProt Q9UKE5); conditions: TNIK, read-out: Test compound/solvent control (%)
T12 construct: purchased Discovery X company (USA), KINOMEscan screening platform
Summary of the method: as §1

protein kinases [13] = test system: protein kinases
Summary of the method: as §1

remaining binding at 0.001 µM (protein kinases [1]; ABL1(F317L)-phosphorylated): 55%
remaining binding at 0.01 µM (protein kinases [1]; ABL1(F317L)-phosphorylated): 3.7%
remaining binding at 1 µM (protein kinases [1]; ABL1(F317L)-phosphorylated): 1.1%
remaining binding at 0.001 µM (protein kinases [1]; ABL1(F317L)-unphosphorylated): 49%
remaining binding at 0.01 µM (protein kinases [1]; ABL1(F317L)-unphosphorylated): 6.8%
remaining binding at 1 µM (protein kinases [1]; ABL1(F317L)-unphosphorylated): 0.25%
remaining binding at 0.001 µM (protein kinases [2]; ABL1(T315I)-phosphorylated): 100%
remaining binding at 0.01 µM (protein kinases [2]; ABL1(T315I)-phosphorylated): 34%
remaining binding at 1 µM (protein kinases [2]; ABL1(T315I)-phosphorylated): 0.45%
remaining binding at 0.001 µM (protein kinases [2]; ABL1(T315I)-unphosphorylated): 96%
remaining binding at 0.01 µM (protein kinases [2]; ABL1(T315I)-unphosphorylated): 32%
remaining binding at 1 µM (protein kinases [2]; ABL1(T315I)-unphosphorylated): 0.15%
Test compound/solvent control (%) (protein kinases [3]; 1 nM): 83%
Test compound/solvent control (%) (protein kinases [3]; 10 nM): 30%
Test compound/solvent control (%) (protein kinases [3]; 1000 nM): 0.2%
Test compound/solvent control (%) (protein kinases [4]; 1 nM): 87%
Test compound/solvent control (%) (protein kinases [4]; 10 nM): 28%
Test compound/solvent control (%) (protein kinases [4]; 1000 nM): 0%
Test compound/solvent control (%) (protein kinases [5]; 1 nM): 64%
Test compound/solvent control (%) (protein kinases [5]; 10 nM): 21%
Test compound/solvent control (%) (protein kinases [5]; 1000 nM): 0.7%
remaining binding at 0.001 µM (protein kinases [6]; 1 nM): 78%
remaining binding at 0.01 µM (protein kinases [6]; 10 nM): 8.5%
remaining binding at 1 µM (protein kinases [6]; 1000 nM): 0%
remaining binding at 0.001 µM (protein kinases [7]; 1 nM): 88%
remaining binding at 0.01 µM (protein kinases [7]; 10 nM): 17%
remaining binding at 1 µM (protein kinases [7]; 1000 nM): 0%
remaining binding at 0.001 µM (protein kinases [8]; 1 nM): 60%
remaining binding at 0.01 µM (protein kinases [8]; 10 nM): 1.7%
remaining binding at 1 µM (protein kinases [8]; 1000 nM): 0%
remaining binding at 0.001 µM (protein kinases [9]; 1 nM): 90%
remaining binding at 0.01 µM (protein kinases [9]; 10 nM): 27%
remaining binding at 1 µM (protein kinases [9]; 1000 nM): 0%
remaining binding at 0.001 µM (protein kinases [10]; 1 nM): 92%
remaining binding at 0.01 µM (protein kinases [10]; 10 nM): 20%
remaining binding at 1 µM (protein kinases [10]; 1000 nM): 1.9%
remaining binding at 0.001 µM (protein kinases [11]; 1 nM): 59%
remaining binding at 0.01 µM (protein kinases [11]; 10 nM): 3.8%
remaining binding at 1 µM (protein kinases [11]; 1000 nM): 0.95%
remaining binding at 0.001 µM (protein kinases [12]; 1 nM): 44%
remaining binding at 0.01 µM (protein kinases [12]; 10 nM): 6.4%
remaining binding at 1 µM (protein kinases [12]; 1000 nM): 7%
Test compound/solvent control (%) (protein kinases [13]; EGFR(L747-E749del, A750P), 1 nM): 92%
Test compound/solvent control (%) (protein kinases [13]; EGFR(L747-E749del, A750P), 10 nM): 11%
Test compound/solvent control (%) (protein kinases [13]; EGFR(L747-E749del, A750P), 1000 nM): 0%
Test compound/solvent control (%) (protein kinases [13]; EGFR(L747-S752del, P753S), 1 nM): 67%
Test compound/solvent control (%) (protein kinases [13]; EGFR(L747-S752del, P753S), 10 nM): 16%
Test compound/solvent control (%) (protein kinases [13]; EGFR(L747-S752del, P753S), 1000 nM): 1.6%
Test compound/solvent control (%) (protein kinases [13]; EGFR(L747-T751del, Sins), 1 nM): 68%
Test compound/solvent control (%) (protein kinases [13]; EGFR(L747-T751del, Sins), 10 nM): 11%
Test compound/solvent control (%) (protein kinases [13]; EGFR(L747-T751del, Sins), 1000 nM): 2.7%
Compound: COCCOc1cc2nccc(Oc3ccc(NC(=O)Nc4cc(C(C)(C)C)n[nH]4)c(Cl)c3)c2cc1NC(C)=O [Compound 66, N-[4-{4-[3-(5-tert-butyl-2H-pyrazol-3-yl)-ureido]-3-chloro-phenoxy}-7-(2-methoxy-ethoxy)-quinolin-6-yl]-acetamide]

Reference: patent publication US10800741B2 (ANCUREALL PHARMACEUTICAL (SHANGHAI) CO., LTD., priority 2017, dated 2020)
